Consider nine compounds from patent US5747500A, “Antiviral 2, 4-pyrimidinedione derivatives” (priority 1993, dated 1998).

The structures appear in SMILES notation. Values after ≈ are worked out from the molar mass of the structure shown.

Series [1] concerns HIV. Put plainly: inhibition of HIV-induced cytopathic effect in MT-4 cells (MTT method). In kind it is cell-based. Conditions: for EC50: Human immunodeficiency virus 1, MT4, HIV-infected MT-4 cells, 1000 CCID50, 4 or 5 day incubation at 37° C., MTT method, read-out: ED50: Effective concentration for the inhibition of the proliferation of HIV by 50%; for S.I.: Selectivity index (CD50/ED50): ratio CD50/ED50, MT-4 cells.

Series [2] can be described thus: cytotoxicity: viability of mock-infected MT-4 host cells (MTT method). In kind it is cell-based. Conditions: human, mt-4 cells, read-out: CD50: Cytotoxic concentration that causes death of cells by 50%. As for the experimental part:
The cytotoxicity of the compounds of the present invention was assessed in parallel with their antiviral activity. It was based on the viability of mock-infected host cells as determined by the MTT methods (se J. Virol. Methods, 20, 309 (1988)).
CD50 : Cytotoxic concentration that causes death of cells by 50%
Background: Tetrazolium assays rely on reduction of a dye to a coloured formazan, in cell work by metabolically active cells.

Consider `CC(=O)OC/C=C/Cn1c(C(=O)c2cc(C)cc(C)c2)c(C(C)C)c(=O)[nH]c1=O` [Example 75, 1-(4-acetoxy-trans-2-butenyl)-5-isopropyl-6-(3,5-dimethylbenzoyl)-2,4-pyrimidinedione], for which, in series [1], the EC50 is less than 0.009 µg/mL and the “S.I.: Selectivity index (CD50/ED50)” value is recorded as > 6,487. Further, the CC50 in series [2] was 58.4 µg/mL (≈ 147 µM).
With `CCc1c(Cc2cc(C)cc(C)c2)n(CC=C(C)C)c(=O)[nH]c1=O` [Example 36, 1-(3-methyl-2-butenyl)-5-ethyl-6-(3,5-dimethylbenzyl)-2,4-pyrimidinedione], in series [1], the EC50 is less than 0.33 µg/mL and the “S.I.: Selectivity index (CD50/ED50)” value came out at 66. Also, in series [2], the CC50 was found to be 22.1 µg/mL (≈ 67.6 µM).
For the compound `CC#CCn1c(C(=O)c2cc(C)cc(C)c2)c(CC)c(=O)[nH]c1=O` [Example 49, 1-(2-butynyl)-5-ethyl-6-(3,5-dimethylbenzoyl)-2,4-pyrimidinedione], in series [1], the EC50 was less than 0.032 µg/mL and the “S.I.: Selectivity index (CD50/ED50)” value is reported as greater than 162. In addition, the CC50 in series [2] is 5.2 µg/mL (≈ 16 µM).
For the compound `CCc1c(C(=O)c2cc(C)cc(C)c2)n(C/C=C/COC(C)=O)c(=O)[nH]c1=O` [Example 80, 1-(4-acetoxy-trans-2-butenyl)-5-ethyl-6-(3,5-dimethylbenzoyl)-2,4-pyrimidinedione], in series [1], the EC50 is less than 0.033 µg/mL and the “S.I.: Selectivity index (CD50/ED50)” value is listed as > 1,345. The CC50 in series [2] turned out to be 44.4 µg/mL (≈ 115 µM).
As for `CCOC(=O)C=CCn1c(C(=O)c2cc(C)cc(C)c2)c(CC)c(=O)[nH]c1=O` [Example 72, 1-(ethoxycarbonylallyl)-5-ethyl-6-(3,5-dimethylbenzoyl)-2,4-pyrimidinedion], in series [1], the EC50 was less than 0.01 µg/mL and the “S.I.: Selectivity index (CD50/ED50)” value is reported as greater than 685. Further, the CC50 in series [2] came out at 6.85 µg/mL (≈ 17.8 µM).
As to `C/C=C/Cn1c(Oc2cc(C)cc(C)c2)c(C(C)C)c(=O)[nH]c1=O` [Example 64], in series [1], the EC50 was less than 0.009 µg/mL and the “S.I.: Selectivity index (CD50/ED50)” value is on record as > 1,098. The CC50 in series [2] came out at 9.89 µg/mL (≈ 30.1 µM).
The matching figures for `CCc1c(C(=O)c2cc(C)cc(C)c2)n(C/C=C/CCl)c(=O)[nH]c1=O` [Example 47]: less than 0.009 µg/mL, greater than 774 and 6.7 µg/mL (≈ 18.6 µM).
For `CCc1c(C(=O)c2cc(C)cc(C)c2)n(C/C=C/COC)c(=O)[nH]c1=O` [Example 82, 1-(4-methoxy-trans-2-butenyl)-5-ethyl-6-(3,5-dimethylbenzoyl)-2,4-pyrimidinedione], in that order: less than 0.32 µg/mL, greater than 134 and 43.1 µg/mL (≈ 121 µM).
On to `C/C=C\Cn1c(C(=O)c2cc(C)cc(C)c2)c(CC)c(=O)[nH]c1=O` [Example 68, 1-(cis-2-butenyl)-5-ethyl-6-(3,5-dimethylbenzoyl)-2,4-pyrimidinedione], for which, in series [1], the EC50 is less than 0.032 µg/mL and the “S.I.: Selectivity index (CD50/ED50)” value is given as greater than 162. Further, in series [2], the CC50 came to 8.21 µg/mL (≈ 25.2 µM).
